Experimental data: ChEMBL document CHEMBL1122965, “The pKa of butaclamol and the mode of butaclamol binding to central dopamine receptors” (J Med Chem, 1985)

Biological target: Dopamine receptor (Homo sapiens) (UniProt P14416+P35462+P21918+P21917+P21728)
Description: Compound was evaluated for its binding affinity towards Dopamine receptor

SMILES	pKa
CC(C)(C)[C@]1(O)CCN2C[C@@H](c3ccccc3)c3ccccc3[C@@H]2C1	7.03
c1ccc([C@H]2CN3CCC[C@H]3c3ccccc32)cc1	9.12
